What was measured:
wheat [1] = assay: Test A postemergence; type: in vivo, Triticum aestivum
Procedure, shortened: (§1)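 Loam/sand soil; pre-em directed soil spray at planting, post-em spray at 1–2 leaf (2–10 cm). Compound in non-phytotoxic solvent + surfactant. Greenhouse 10 d; visual injury vs untreated, 0 = no effect, 100 = complete control.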

rice = assay: Test B flooded paddy test; type: in vivo, Oryza sativa; conditions: 250 g ai/ha, Flood, 13 days, 0 to 100 scale (0 no effect, 100 complete control)
Procedure, shortened: (§2)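 Compound is introduced into paddy water covering soil by 3 cm, treating plants that have reached two leaves. Pots are kept flooded at that depth under greenhouse conditions. Assessment at 13 days gives a 0–100 visual control score.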

horseweed = assay: Test A postemergence; type: in vivo, Erigeron canadensis
Procedure, shortened: as §1

ryegrass, Italian [2] = assay: Test A preemergence; type: in vivo, Lolium multiflorum
Procedure, shortened: as §1

kochia [3] = assay: Test A preemergence; type: in vivo, Bassia scoparia
Procedure, shortened: as §1

ragweed [4] = assay: Test A preemergence; type: in vivo, Ambrosia artemisiifolia
Procedure, shortened: as §1

goosegrass [5] = assay: Test A preemergence; type: in vivo, Eleusine indica
Procedure, shortened: as §1

sedge, umbrella = assay: Test B flooded paddy test; type: in vivo, Cyperus difformis; conditions: 250 g ai/ha, Flood, 13 days, 0 to 100 scale (0 no effect, 100 complete control)
Procedure, shortened: as §2

wheat [6] = assay: Test A preemergence; type: in vivo, Triticum aestivum
Procedure, shortened: as §1

galium = assay: Test A postemergence; type: in vivo, Galium aparine
Procedure, shortened: as §1

oat, wild [7] = assay: Test A postemergence; type: in vivo, Avena fatua
Procedure, shortened: as §1

kochia [8] = assay: Test A postemergence; type: in vivo, Bassia scoparia
Procedure, shortened: as §1

goosegrass [9] = assay: Test A postemergence; type: in vivo, Eleusine indica
Procedure, shortened: as §1

blackgrass [10] = assay: Test A postemergence; type: in vivo, Alopecurus myosuroides
Procedure, shortened: as §1

ryegrass, Italian [11] = assay: Test A postemergence; type: in vivo, Lolium multiflorum
Procedure, shortened: as §1

foxtail, giant [12] = assay: Test A preemergence; type: in vivo, Setaria faberi
Procedure, shortened: as §1

foxtail, giant [13] = assay: Test A postemergence; type: in vivo, Setaria faberi
Procedure, shortened: as §1

pigweed, palmer [14] = assay: Test A postemergence; type: in vivo, Amaranthus palmeri
Procedure, shortened: as §1

corn [15] = assay: Test A preemergence; type: in vivo, Zea mays
Procedure, shortened: as §1

soybean [16] = assay: Test A preemergence; type: in vivo, Glycine max
Procedure, shortened: as §1

corn [17] = assay: Test A postemergence; type: in vivo, Zea mays
Procedure, shortened: as §1

barnyardgrass = assay: Test B flooded paddy test; type: in vivo, Echinochloa crus-galli; conditions: 250 g ai/ha, Flood, 13 days, 0 to 100 scale (0 no effect, 100 complete control)
Procedure, shortened: as §2

soybean [18] = assay: Test A postemergence; type: in vivo, Glycine max
Procedure, shortened: as §1

oat, wild [19] = assay: Test A preemergence; type: in vivo, Avena fatua
Procedure, shortened: as §1

ducksalad = assay: Test B flooded paddy test; type: in vivo, Heteranthera limosa; conditions: 250 g ai/ha, Flood, 13 days, 0 to 100 scale (0 no effect, 100 complete control)
Procedure, shortened: as §2

pigweed, palmer [20] = assay: Test A preemergence; type: in vivo, Amaranthus palmeri
Procedure, shortened: as §1

blackgrass [21] = assay: Test A preemergence; type: in vivo, Alopecurus myosuroides
Procedure, shortened: as §1

ragweed [22] = assay: Test A postemergence; type: in vivo, Ambrosia artemisiifolia
Procedure, shortened: as §1

[23] = 125 g ai/ha, postemergence, 10 days, visual injury, 0 to 100 scale (0 no effect, 100 complete control)
[24] = 500 g ai/ha, Postemergence, 0 to 100 scale
[25] = 125 g ai/ha, visual injury after 10 days, 0 to 100 scale, 0 is no effect, 100 is complete control
[26] = 500 g ai/ha, 0 to 100 scale (0 no effect, 100 complete control), 10 days
[27] = 125 g ai/ha, postemergence, 10 days, 0 to 100 scale, 0 no effect, 100 complete control
[28] = 500 g ai/ha, postemergence, 10 days, visual injury, 0 to 100 scale (0 no effect, 100 complete control)

SMILES: CC1CN(C(=O)c2cccc(-n3cncn3)c2)c2c(F)cccc2O1 (stereo not shown) [Compound 28]
- Plant response rating, Wheat (wheat [1]; [23]): 10
- Plant response rating, Wheat (wheat [1]; [24]): 30
- Plant response rating, Rice (rice): 0
- Plant response rating, Horseweed (horseweed; [23]): 0
- Plant response rating, Horseweed (horseweed; [24]): 0
- Plant response rating, Ryegrass, Italian (ryegrass, Italian [2]; [25]): 40
- Plant response rating, Ryegrass, Italian (ryegrass, Italian [2]; [26]): 90
- Plant response rating, Kochia (kochia [3]; [25]): 0
- Plant response rating, Kochia (kochia [3]; [26]): 20
- Plant response rating, Ragweed (ragweed [4]; [25]): 0
- Plant response rating, Ragweed (ragweed [4]; [26]): 20
- Plant response rating, Goosegrass (goosegrass [5]; [25]): 20
- Plant response rating, Goosegrass (goosegrass [5]; [26]): 80
- Plant response rating, Sedge, Umbrella (sedge, umbrella): 0
- Plant response rating, Wheat (wheat [6]; [25]): 0
- Plant response rating, Wheat (wheat [6]; [26]): 10
- Plant response rating, Galium (galium; [23]): 50
- Plant response rating, Galium (galium; [24]): 50
- Plant response rating, Oat, Wild (oat, wild [7]; [23]): 20
- Plant response rating, Oat, Wild (oat, wild [7]; [24]): 30
- Plant response rating, Kochia (kochia [8]; [23]): 0
- Plant response rating, Kochia (kochia [8]; [24]): 20
- Plant response rating, Goosegrass (goosegrass [9]; [23]): 0
- Plant response rating, Goosegrass (goosegrass [9]; [24]): 50
- Plant response rating, Blackgrass (blackgrass [10]; [23]): 30
- Plant response rating, Blackgrass (blackgrass [10]; [24]): 80
- Plant response rating, Ryegrass, Italian (ryegrass, Italian [11]; [23]): 0
- Plant response rating, Ryegrass, Italian (ryegrass, Italian [11]; [24]): 70
- Plant response rating, Foxtail, Giant (foxtail, giant [12]; [25]): 30
- Plant response rating, Foxtail, Giant (foxtail, giant [12]; [26]): 90
- Plant response rating, Foxtail, Giant (foxtail, giant [13]; [23]): 0
- Plant response rating, Foxtail, Giant (foxtail, giant [13]; [24]): 70
- Plant response rating, Pigweed, Palmer (pigweed, palmer [14]; [23]): 0
- Plant response rating, Pigweed, Palmer (pigweed, palmer [14]; [24]): 20
- Plant response rating, Corn (corn [15]; [25]): 0
- Plant response rating, Corn (corn [15]; [26]): 30
- Plant response rating, Soybean (soybean [16]; [25]): 0
- Plant response rating, Soybean (soybean [16]; [26]): 0
- Plant response rating, Corn (corn [17]; [23]): 0
- Plant response rating, Corn (corn [17]; [24]): 20
- Plant response rating, Barnyardgrass (barnyardgrass): 10
- Plant response rating, Soybean (soybean [18]; [23]): 90
- Plant response rating, Soybean (soybean [18]; [24]): 90
- Plant response rating, Oat, Wild (oat, wild [19]; [25]): 0
- Plant response rating, Oat, Wild (oat, wild [19]; [26]): 0
- Plant response rating, Ducksalad (ducksalad): 80
- Plant response rating, Pigweed, Palmer (pigweed, palmer [20]; [25]): 0
- Plant response rating, Pigweed, Palmer (pigweed, palmer [20]; [26]): 50
- Plant response rating, Blackgrass (blackgrass [21]; [25]): 0
- Plant response rating, Blackgrass (blackgrass [21]; [26]): 60
- Plant response rating, Ragweed (ragweed [22]; [23]): 0
- Plant response rating, Ragweed (ragweed [22]; [24]): 0

SMILES: C#CCOc1ccc(-n2cnc(C(C)C)n2)cc1C(=O)N1C[C@H](C)Oc2c(Cl)cccc21 [Compound 107]
- Wheat plant response rating (wheat [1]; [27]): 30
- Plant response rating, Wheat (wheat [1]; [28]): 30
- Plant response rating, Rice (rice): 20
- Horseweed plant response rating (horseweed; [27]): 20
- Plant response rating, Horseweed (horseweed; [28]): 30
- Plant response rating, Ryegrass, Italian (ryegrass, Italian [2]; [25]): 80
- Plant response rating, Ryegrass, Italian (ryegrass, Italian [2]; [26]): 100
- Plant response rating, Kochia (kochia [3]; [25]): 20
- Plant response rating, Kochia (kochia [3]; [26]): 80
- Plant response rating, Ragweed (ragweed [4]; [25]): 30
- Plant response rating, Goosegrass (goosegrass [5]; [25]): 100
- Plant response rating, Goosegrass (goosegrass [5]; [26]): 100
- Plant response rating, Sedge, Umbrella (sedge, umbrella): 90
- Plant response rating, Wheat (wheat [6]; [25]): 0
- Plant response rating, Wheat (wheat [6]; [26]): 40
- Galium plant response rating (galium; [27]): 100
- Plant response rating, Galium (galium; [28]): 100
- Oat, Wild plant response rating (oat, wild [7]; [27]): 30
- Plant response rating, Oat, Wild (oat, wild [7]; [28]): 70
- Kochia plant response rating (kochia [8]; [27]): 80
- Plant response rating, Kochia (kochia [8]; [28]): 90
- Goosegrass plant response rating (goosegrass [9]; [27]): 70
- Plant response rating, Goosegrass (goosegrass [9]; [28]): 100
- Blackgrass plant response rating (blackgrass [10]; [27]): 60
- Plant response rating, Blackgrass (blackgrass [10]; [28]): 80
- Ryegrass, Italian plant response rating (ryegrass, Italian [11]; [27]): 20
- Plant response rating, Ryegrass, Italian (ryegrass, Italian [11]; [28]): 60
- Plant response rating, Foxtail, Giant (foxtail, giant [12]; [25]): 100
- Plant response rating, Foxtail, Giant (foxtail, giant [12]; [26]): 100
- Foxtail, Giant plant response rating (foxtail, giant [13]; [27]): 90
- Plant response rating, Foxtail, Giant (foxtail, giant [13]; [28]): 100
- Pigweed, Palmer plant response rating (pigweed, palmer [14]; [27]): 90
- Plant response rating, Pigweed, Palmer (pigweed, palmer [14]; [28]): 100
- Plant response rating, Corn (corn [15]; [25]): 10
- Plant response rating, Corn (corn [15]; [26]): 50
- Plant response rating, Soybean (soybean [16]; [25]): 50
- Plant response rating, Soybean (soybean [16]; [26]): 70
- Corn plant response rating (corn [17]; [27]): 70
- Plant response rating, Corn (corn [17]; [28]): 80
- Plant response rating, Barnyardgrass (barnyardgrass): 70
- Soybean plant response rating (soybean [18]; [27]): 100
- Plant response rating, Soybean (soybean [18]; [28]): 100
- Plant response rating, Oat, Wild (oat, wild [19]; [25]): 60
- Plant response rating, Oat, Wild (oat, wild [19]; [26]): 70
- Plant response rating, Ducksalad (ducksalad): 25
- Plant response rating, Pigweed, Palmer (pigweed, palmer [20]; [25]): 100
- Plant response rating, Pigweed, Palmer (pigweed, palmer [20]; [26]): 100
- Plant response rating, Blackgrass (blackgrass [21]; [25]): 20
- Plant response rating, Blackgrass (blackgrass [21]; [26]): 40
- Ragweed plant response rating (ragweed [22]; [27]): 50
- Plant response rating, Ragweed (ragweed [22]; [28]): 70

— patent US20260262643A1, “HERBICIDAL BENZOXAZINES” (FMC CORPORATION, priority 2022, published 2026)
